Results published in ChEMBL document CHEMBL3045208, “Synthesis and Inhibitory Effect on Photosynthetic Electron Transport of 1,3,5-Triazinylcarboxylic Acid Derivatives” (J Pestic Sci, 2005).

Tests used:
[1] = target: Chloroplast thylakoid membrane protein (psbA) (Chenopodium album) (UniProt Q31945); experiment: Selectivity ratio of I50 for photosynthetic electron transport protein complex in atrazine-resistant Chenopodium album thylakoid to I50 for photosynthetic electron transport protein complex in wild type Chenopodium album thylakoid
Chain of Chloroplast thylakoid membrane protein (psbA) (Chenopodium album) (Q31945 1-69): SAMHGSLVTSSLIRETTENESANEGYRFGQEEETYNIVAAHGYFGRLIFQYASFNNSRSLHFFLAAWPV

[2] = Inhibition of photosynthetic electron transport protein complex in Spinacia oleracea (spinach) leaf thylakoid
[3] = target: Photosystem II protein D1 (Spinacia oleracea, UniProt P69560); experiment: Inhibition of photosynthetic electron transport protein complex in Spinacia oleracea (spinach) leaf thylakoid

Row | SMILES | Selectivity ratio [1] | pI50 [2] | pI50 [3]
1 | Cc1nc(NCc2ccccc2)nc(C(F)(F)F)n1 | 2.6 | 6.85 | 
2 | CCOC(=O)c1nc(C)nc(NC(C)CC)n1 (centres undefined) |  |  | 4.37
3 | CCNc1nc(Cl)nc(NC(C)C)n1 [ATRAZINE] | 324 | 6.73 | 
4 | CCOC(=O)c1nc(C)nc(NC(C)C)n1 | 2.45 |  | 6.11
5 | CCOC(=O)c1nc(C)nc(NCc2ccccc2)n1 | 0.98 |  | 4.88
6 | C#CCNc1nc(C)nc(C(=O)OCC)n1 | 1.23 |  | 
7 | Cc1nc(CF)nc(NCc2ccccc2)n1 |  | 4.98 | 
8 | COC(=O)c1nc(C)nc(NCc2ccccc2)n1 |  |  | 4
9 | Cc1nc(NCc2ccccc2)nc(C(F)F)n1 | 2.5 | 5.63 | 
